Data reported in ChEMBL document CHEMBL5465560, “Selectivity Literature for EUbOPEN Chemogenomic Library” (2024).

What was measured:
[1] = target: STE20/SPS1-related proline-alanine-rich protein kinase (Homo sapiens) (UniProt Q9UEW8); assay: Selectivity interaction (Kinase panel (KiNativ target engagement assay in Jurkat cells)) EUB0001635a STK39; assay type: cell-based; conditions: Selectivity number of off-targets 0.0, Selectivity number of targets 233.0, Source Knowledge https://www.sciencedirect.com/science/article/pii/S2451945619300674?via%3Dihub, at 1 µM
[2] = target: T1, Rhodopsin kinase GRK1 (Homo sapiens) (UniProt Q15835); assay: Selectivity interaction (KinomeScan (DiscoverX)) EUB0000229b GRK1; conditions: at 10 µM
T1 sequence (whole entry): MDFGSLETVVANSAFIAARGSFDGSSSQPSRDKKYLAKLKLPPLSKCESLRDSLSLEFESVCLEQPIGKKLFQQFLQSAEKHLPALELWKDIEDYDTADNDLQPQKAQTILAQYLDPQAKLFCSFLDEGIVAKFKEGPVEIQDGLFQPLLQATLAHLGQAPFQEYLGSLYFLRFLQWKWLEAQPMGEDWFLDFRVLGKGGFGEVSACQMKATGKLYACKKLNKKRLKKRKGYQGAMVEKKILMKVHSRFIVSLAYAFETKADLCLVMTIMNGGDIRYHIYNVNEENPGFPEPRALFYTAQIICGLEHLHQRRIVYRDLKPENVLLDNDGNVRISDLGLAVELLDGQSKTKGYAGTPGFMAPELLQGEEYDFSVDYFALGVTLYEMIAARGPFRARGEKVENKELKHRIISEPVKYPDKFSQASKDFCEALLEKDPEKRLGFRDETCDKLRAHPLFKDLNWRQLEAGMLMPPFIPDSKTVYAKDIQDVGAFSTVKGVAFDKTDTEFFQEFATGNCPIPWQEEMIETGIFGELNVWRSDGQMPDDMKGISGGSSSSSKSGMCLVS

[3] = target: T2, Mitogen-activated protein kinase kinase kinase 6 (Homo sapiens) (UniProt O95382); assay: Selectivity interaction (KinomeScan (DiscoverX)) EUB0000045b MAP3K6
T2 sequence (whole entry): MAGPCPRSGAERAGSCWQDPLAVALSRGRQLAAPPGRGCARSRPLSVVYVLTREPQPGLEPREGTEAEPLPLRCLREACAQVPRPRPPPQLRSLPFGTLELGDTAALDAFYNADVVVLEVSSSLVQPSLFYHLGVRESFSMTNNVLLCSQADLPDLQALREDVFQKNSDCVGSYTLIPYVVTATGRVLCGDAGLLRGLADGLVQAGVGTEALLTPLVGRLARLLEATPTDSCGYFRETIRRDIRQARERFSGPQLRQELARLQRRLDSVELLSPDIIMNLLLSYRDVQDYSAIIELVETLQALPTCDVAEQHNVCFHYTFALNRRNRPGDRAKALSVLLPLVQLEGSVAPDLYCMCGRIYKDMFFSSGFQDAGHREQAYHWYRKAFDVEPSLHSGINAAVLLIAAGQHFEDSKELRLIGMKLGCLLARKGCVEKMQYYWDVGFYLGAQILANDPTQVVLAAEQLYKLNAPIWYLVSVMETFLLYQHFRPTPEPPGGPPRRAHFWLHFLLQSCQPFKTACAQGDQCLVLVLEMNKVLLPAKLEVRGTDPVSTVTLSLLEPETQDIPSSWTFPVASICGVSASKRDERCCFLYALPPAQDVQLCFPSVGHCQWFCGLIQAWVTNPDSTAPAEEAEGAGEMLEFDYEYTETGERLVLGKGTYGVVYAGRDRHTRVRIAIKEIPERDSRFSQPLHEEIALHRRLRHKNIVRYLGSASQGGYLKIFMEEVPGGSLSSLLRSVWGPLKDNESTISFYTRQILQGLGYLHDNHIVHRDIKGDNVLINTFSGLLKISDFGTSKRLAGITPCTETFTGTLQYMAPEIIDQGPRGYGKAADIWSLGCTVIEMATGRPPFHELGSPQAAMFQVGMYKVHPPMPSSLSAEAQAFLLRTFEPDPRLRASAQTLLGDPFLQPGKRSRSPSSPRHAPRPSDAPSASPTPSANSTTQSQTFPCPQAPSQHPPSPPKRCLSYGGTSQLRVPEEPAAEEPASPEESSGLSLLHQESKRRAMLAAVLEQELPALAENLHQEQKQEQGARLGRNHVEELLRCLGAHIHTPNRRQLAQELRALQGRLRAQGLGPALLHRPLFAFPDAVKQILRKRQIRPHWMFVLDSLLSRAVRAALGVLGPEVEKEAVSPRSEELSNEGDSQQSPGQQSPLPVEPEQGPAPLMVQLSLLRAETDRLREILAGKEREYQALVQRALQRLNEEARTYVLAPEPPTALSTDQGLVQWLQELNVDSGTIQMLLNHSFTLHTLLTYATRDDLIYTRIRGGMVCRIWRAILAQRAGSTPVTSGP

[4] = target: NT-3 growth factor receptor (Homo sapiens, UniProt Q16288); assay: Selectivity interaction (Kinase panel (Z-LYTE Assay)) EUB0001632a NTRK3; conditions: at 10 µM
[5] = target: Serine/threonine-protein kinase VRK2 (Homo sapiens) (UniProt Q86Y07); assay: Selectivity interaction (KinomeScan (DiscoverX)) EUB0000666a VRK2; conditions: at 10 µM
[6] = target: Protein kinase C delta type (Homo sapiens) (UniProt Q05655); assay: Selectivity interaction (KinomeScan (DiscoverX)) EUB0001619a PRKCD; conditions: at 1 µM
[7] = target: Vascular endothelial growth factor receptor 2 (Homo sapiens, UniProt P35968); assay: Selectivity interaction (Kinase panel (literature)) EUB0001199aCl KDR; conditions: at 1 µM
[8] = target: Protein-tyrosine kinase 6 (Homo sapiens, UniProt Q13882); assay: Selectivity interaction (Kinase panel (Invitrogen)) EUB0000639a PTK6; conditions: at 200 nM
[9] = target: Serine/threonine-protein kinase PLK1 (Homo sapiens, UniProt P53350); assay: Selectivity interaction (ActivX KiNativ screen (kinase selectivity in THP-1 cell lysates)) EUB0000639a PLK1; assay type: subcellular; conditions: lysate, at 0.2 µM
[10] = target: Serine/threonine-protein kinase 16 (Homo sapiens, UniProt O75716); conditions: at 10 µM
[11] = target: Receptor tyrosine-protein kinase erbB-3 (Homo sapiens) (UniProt P21860); assay: Selectivity interaction (Ambit KINOMEscan and KiNATiv profiling in Jurkat cells) EUB0000090b ERBB3; assay type: cell-based; conditions: at 1 µM
Receptor tyrosine-protein kinase erbB-3 (Homo sapiens), sequence (P21860 whole entry): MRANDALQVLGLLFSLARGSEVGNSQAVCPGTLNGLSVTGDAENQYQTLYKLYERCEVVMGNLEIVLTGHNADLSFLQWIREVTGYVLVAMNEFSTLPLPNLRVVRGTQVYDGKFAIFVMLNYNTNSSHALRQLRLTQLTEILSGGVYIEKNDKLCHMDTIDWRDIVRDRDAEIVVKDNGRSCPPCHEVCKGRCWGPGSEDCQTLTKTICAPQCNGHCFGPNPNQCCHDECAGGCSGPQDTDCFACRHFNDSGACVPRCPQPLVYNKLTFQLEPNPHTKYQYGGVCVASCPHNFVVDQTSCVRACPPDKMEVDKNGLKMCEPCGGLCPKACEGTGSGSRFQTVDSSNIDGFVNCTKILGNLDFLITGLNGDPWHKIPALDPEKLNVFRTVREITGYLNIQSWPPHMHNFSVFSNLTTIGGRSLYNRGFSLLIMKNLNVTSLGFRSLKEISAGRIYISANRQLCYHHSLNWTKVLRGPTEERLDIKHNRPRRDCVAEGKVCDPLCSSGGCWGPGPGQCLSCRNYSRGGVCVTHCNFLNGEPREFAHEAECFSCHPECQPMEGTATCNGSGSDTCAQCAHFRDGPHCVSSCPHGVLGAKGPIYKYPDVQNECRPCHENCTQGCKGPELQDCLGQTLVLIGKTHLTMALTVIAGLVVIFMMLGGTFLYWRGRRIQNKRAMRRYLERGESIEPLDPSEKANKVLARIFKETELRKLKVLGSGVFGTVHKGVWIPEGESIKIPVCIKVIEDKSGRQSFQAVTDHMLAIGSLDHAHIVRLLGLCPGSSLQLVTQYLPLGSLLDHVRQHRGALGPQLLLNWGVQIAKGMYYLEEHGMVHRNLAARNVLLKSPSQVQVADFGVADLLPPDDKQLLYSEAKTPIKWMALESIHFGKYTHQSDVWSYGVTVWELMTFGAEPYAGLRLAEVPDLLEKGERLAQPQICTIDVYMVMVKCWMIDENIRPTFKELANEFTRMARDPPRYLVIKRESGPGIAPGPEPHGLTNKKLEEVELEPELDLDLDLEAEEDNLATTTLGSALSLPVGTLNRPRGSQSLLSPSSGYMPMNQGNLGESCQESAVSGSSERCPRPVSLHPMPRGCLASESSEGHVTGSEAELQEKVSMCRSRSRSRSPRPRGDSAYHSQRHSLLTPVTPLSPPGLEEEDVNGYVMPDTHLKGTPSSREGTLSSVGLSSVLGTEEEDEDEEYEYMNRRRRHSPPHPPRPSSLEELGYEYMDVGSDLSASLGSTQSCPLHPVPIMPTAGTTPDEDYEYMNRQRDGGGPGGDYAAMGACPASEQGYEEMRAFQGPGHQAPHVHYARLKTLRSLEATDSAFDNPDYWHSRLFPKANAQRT

Serine/threonine-protein kinase PLK1, sequence (P53350 whole entry): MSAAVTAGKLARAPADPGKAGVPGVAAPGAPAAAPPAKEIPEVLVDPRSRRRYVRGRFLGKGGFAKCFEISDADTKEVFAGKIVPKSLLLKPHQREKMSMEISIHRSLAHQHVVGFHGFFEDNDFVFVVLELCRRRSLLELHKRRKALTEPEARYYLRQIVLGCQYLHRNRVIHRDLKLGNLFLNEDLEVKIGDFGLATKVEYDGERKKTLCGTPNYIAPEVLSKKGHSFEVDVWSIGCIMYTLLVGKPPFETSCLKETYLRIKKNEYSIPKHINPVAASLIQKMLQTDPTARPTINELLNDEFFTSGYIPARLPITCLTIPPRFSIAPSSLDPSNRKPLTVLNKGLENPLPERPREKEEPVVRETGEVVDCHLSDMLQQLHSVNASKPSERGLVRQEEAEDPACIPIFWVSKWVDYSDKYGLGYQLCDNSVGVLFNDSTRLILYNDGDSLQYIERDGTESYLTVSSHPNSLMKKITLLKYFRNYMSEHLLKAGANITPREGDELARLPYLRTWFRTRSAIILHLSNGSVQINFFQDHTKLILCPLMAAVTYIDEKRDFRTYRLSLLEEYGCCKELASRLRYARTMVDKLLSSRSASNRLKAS
Vascular endothelial growth factor receptor 2, sequence (P35968 whole entry): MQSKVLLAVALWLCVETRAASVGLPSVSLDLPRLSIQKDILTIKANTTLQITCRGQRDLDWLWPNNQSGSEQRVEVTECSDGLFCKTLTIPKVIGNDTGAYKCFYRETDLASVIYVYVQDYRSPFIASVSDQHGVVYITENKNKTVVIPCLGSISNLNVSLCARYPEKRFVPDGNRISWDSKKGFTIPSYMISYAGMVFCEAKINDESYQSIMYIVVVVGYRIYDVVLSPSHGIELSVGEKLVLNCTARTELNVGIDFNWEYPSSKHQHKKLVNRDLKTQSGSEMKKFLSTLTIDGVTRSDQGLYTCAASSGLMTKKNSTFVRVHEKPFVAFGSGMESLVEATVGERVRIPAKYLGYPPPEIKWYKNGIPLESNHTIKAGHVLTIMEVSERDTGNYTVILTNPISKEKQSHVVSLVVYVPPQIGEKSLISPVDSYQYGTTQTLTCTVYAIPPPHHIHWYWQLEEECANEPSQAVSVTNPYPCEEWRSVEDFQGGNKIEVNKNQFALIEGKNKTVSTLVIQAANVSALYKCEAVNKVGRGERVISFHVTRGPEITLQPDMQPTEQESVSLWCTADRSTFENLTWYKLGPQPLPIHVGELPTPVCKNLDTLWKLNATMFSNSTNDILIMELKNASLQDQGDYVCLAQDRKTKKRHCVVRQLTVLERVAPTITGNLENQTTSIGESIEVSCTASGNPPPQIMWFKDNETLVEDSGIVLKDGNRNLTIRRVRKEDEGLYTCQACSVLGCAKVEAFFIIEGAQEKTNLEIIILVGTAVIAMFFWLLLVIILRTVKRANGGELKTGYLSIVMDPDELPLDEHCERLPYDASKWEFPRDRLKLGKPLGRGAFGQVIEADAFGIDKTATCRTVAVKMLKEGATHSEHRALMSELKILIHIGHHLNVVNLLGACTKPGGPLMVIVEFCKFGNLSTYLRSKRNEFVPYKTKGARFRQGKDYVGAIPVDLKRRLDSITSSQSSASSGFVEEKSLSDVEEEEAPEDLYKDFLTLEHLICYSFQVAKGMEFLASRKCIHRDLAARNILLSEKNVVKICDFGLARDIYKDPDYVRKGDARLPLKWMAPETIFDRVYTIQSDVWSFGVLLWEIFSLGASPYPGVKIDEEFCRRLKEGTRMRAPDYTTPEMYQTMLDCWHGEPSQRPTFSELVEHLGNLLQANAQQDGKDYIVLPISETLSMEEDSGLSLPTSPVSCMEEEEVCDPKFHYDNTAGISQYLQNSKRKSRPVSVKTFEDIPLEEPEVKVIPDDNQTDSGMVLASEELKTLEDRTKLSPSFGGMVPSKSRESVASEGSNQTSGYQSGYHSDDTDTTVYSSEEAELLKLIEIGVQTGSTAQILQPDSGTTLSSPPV
Protein kinase C delta type (Homo sapiens), sequence (Q05655 whole entry, looked up): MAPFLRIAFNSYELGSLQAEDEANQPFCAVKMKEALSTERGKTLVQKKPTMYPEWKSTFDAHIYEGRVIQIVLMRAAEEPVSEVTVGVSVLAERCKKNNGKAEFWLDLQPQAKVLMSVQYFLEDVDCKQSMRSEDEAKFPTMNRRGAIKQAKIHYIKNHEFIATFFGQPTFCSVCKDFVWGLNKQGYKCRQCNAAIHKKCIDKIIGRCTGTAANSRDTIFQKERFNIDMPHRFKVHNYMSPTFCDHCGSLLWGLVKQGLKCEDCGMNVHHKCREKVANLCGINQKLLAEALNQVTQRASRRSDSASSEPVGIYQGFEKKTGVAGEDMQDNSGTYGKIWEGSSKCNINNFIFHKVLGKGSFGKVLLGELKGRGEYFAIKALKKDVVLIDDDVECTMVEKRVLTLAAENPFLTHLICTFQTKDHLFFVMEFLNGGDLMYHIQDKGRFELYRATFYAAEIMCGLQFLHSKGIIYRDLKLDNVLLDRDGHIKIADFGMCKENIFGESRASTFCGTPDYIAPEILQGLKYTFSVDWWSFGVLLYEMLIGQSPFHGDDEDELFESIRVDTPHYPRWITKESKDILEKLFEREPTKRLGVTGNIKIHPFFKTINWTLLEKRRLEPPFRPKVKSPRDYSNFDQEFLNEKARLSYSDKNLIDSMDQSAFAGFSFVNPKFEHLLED
Serine/threonine-protein kinase 16, sequence (O75716 whole entry): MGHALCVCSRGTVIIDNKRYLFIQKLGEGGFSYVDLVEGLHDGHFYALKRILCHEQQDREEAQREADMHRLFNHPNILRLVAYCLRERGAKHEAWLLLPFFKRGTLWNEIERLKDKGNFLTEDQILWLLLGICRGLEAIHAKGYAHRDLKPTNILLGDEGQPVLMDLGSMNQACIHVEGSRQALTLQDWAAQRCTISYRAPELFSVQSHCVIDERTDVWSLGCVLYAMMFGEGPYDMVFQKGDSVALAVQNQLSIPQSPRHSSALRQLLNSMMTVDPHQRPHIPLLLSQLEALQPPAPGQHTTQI
Protein-tyrosine kinase 6, sequence (Q13882 whole entry, looked up): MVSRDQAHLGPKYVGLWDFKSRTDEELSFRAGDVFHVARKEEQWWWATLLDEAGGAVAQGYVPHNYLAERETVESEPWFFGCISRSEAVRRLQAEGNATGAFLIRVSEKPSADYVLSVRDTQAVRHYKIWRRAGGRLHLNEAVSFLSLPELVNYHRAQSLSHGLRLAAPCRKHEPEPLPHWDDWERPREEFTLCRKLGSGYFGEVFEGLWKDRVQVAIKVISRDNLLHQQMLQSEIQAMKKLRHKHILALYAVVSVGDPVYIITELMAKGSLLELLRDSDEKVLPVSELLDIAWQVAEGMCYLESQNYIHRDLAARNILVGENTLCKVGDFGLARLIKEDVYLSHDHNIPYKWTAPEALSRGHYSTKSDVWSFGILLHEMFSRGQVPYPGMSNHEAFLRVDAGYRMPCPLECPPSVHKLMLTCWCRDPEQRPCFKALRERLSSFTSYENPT

In the case of `C=CC(=O)Nc1ccc(C(=O)Nc2[nH]nc3c2CN(C(=O)N[C@H](CN(C)C)c2ccccc2)C3(C)C)cc1`, the % of engagement [1] is reported as 11.5%.
For `COc1cc(N(C)c2ccnc3ccc(C(F)(F)F)cc23)cc(OC)c1OC`, the % binding [2] was 68%.
Compound `C=CC(=O)Nc1cc(-n2c(=O)ccc3cnc4ccc(-c5ccc(NS(C)(=O)=O)cc5)cc4c32)ccc1C` has a % of control ([3]; at 1 µM) of 100% and a % of control ([3]; at 10 µM) of 100%.
With `Cn1cc(-n2cnc3c(NCc4nc5cc(Cl)c(Cl)cc5[nH]4)nc(N4CCOCC4)nc32)cn1` the % of control [4] was 19%.
Work on `O=C(NOC[C@H](O)CO)c1ccc(F)c(F)c1Nc1ccc(I)cc1F` yielded a % of control [5] of 100%.
`N#Cc1cccc(-c2c[nH]c3ncnc(N4CCOCC4)c23)c1` was tested, and the % of control [6] was 67%.
Work on `CN1Cc2nccc(-c3cn(C)nc3-c3ccc(F)cc3)c2C1=O` yielded a % of inhibition [7] of 8%.
For `CC[C@@H]1[C@H](F)C(=O)N[C@@H]1COc1nccc2cc(C(N)=O)c(OC)cc12` [ZIMLOVISERTIB], the % of inhibition [8] was -1.08% and the % of inhibition [9] was -0.2%.
In the case of `CCN(CC)CCCCNc1ncc2cc(-c3cc(OC)cc(OC)c3)c(NC(=O)NC(C)(C)C)nc2n1`, the % of control [10] is reported as 100%.
`CN(C)C/C=C/C(=O)Nc1ccc(C(=O)N2CCCC(Nc3ncc(Cl)c(-c4c[nH]c5ccccc45)n3)C2)cc1` (configuration not stated) showed a % of control [11] of 98%.
